Measured values taken from PubChem BioAssay AID330 (DTP/NCI, 2004).
Where “and” joins values, the source holds several entries; their conditions need not be identical. Equal values may be shown once. Toxic doses and inconclusive results are not listed.

Tested on: P388 leukemia ip, CD2F1 mice, survival T/C
Assay: NCI In Vivo Anticancer Drug Screen. Data for tumor model P388 Leukemia (intraperitoneal) in CD2F1 (CDF1) mice
Settings: endpoint: median survival time, higher = longer survival
Summary of the method: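 Mice carrying the transplanted tumor received test compound or vehicle. Survival was recorded in each group, and the value is the treated-group measurement divided by that of the vehicle-treated control group.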

[1] = dose: 25.0 mg/kg/injection, schedule: Q01DX009 (ip), vehicle: Klucel (hydroxypropylcellulose) (HPC)
[2] = dose: 50.0 mg/kg/injection, schedule: Q01DX009 (ip), vehicle: Klucel (hydroxypropylcellulose) (HPC)
[3] = dose: 60.0 mg/kg/injection, schedule: Q01DX005 (ip), vehicle: saline with Tween-80
[4] = dose: 120.0 mg/kg/injection, schedule: Q01DX005 (ip), vehicle: saline with Tween-80
[5] = dose: 240.0 mg/kg/injection, schedule: Q01DX005 (ip), vehicle: saline with Tween-80
[6] = dose: 100.0 mg/kg/injection, schedule: Q01DX005 (ip), vehicle: saline with Tween-80
[7] = dose: 200.0 mg/kg/injection, schedule: Q01DX005 (ip), vehicle: saline with Tween-80
[8] = dose: 50.0 mg/kg/injection, schedule: Q01DX005 (ip), vehicle: saline with Tween-80
[9] = dose: 50.0 mg/kg/injection, schedule: Q01DX009 (ip), vehicle: saline with Tween-80
[10] = dose: 100.0 mg/kg/injection, schedule: Q01DX009 (ip), vehicle: saline with Tween-80
[11] = dose: 50.0 mg/kg/injection, schedule: Q01DX005 (ip), vehicle: Klucel (hydroxypropylcellulose) (HPC)
[12] = dose: 100.0 mg/kg/injection, schedule: Q01DX005 (ip), vehicle: Klucel (hydroxypropylcellulose) (HPC)
[13] = dose: 200.0 mg/kg/injection, schedule: Q01DX005 (ip), vehicle: Klucel (hydroxypropylcellulose) (HPC)
[14] = dose: 50.0 mg/kg/injection, schedule: Q01DX005 (ip), vehicle: saline
[15] = dose: 100.0 mg/kg/injection, schedule: Q01DX005 (ip), vehicle: saline
[16] = dose: 200.0 mg/kg/injection, schedule: Q01DX005 (ip), vehicle: saline
[17] = dose: 100.0 mg/kg/injection, schedule: Q01DX009 (ip), vehicle: Klucel (hydroxypropylcellulose) (HPC)
[18] = dose: 200.0 mg/kg/injection, schedule: Q01DX009 (ip), vehicle: Klucel (hydroxypropylcellulose) (HPC)
[19] = dose: 6.25 mg/kg/injection, schedule: Q01DX009 (ip), vehicle: saline with Tween-80

For `Cc1ccc2c(ccc(CC(=S)[S-])[n+]2C)c1`, the T/C [1] was 114 % of control and the T/C [2] was 120 % of control.
`COc1ccc2nc(C)cc(N=[N+]=[N-])c2c1` was tested, and the T/C [3] was 100 % of control, the T/C [4] was 100 % of control and the T/C [5] was 91 % of control.
For `N=Cc1cc([N+](=O)[O-])ccc1O`, the T/C [3] was 105 % of control and the T/C [4] was 104 % of control.
`Cc1nsc2[nH]c(=O)n(Nc3ccc(O)cc3)c(=O)c12` was tested, and the T/C [6] was 174 % of control and 178 % of control and the T/C [7] was 180 % of control.
With `COc1ccccc1NC(=O)CC(=O)N1N=C(C)C(N=Nc2ccc(I)cc2)C1=O` (centres undefined) the T/C [8] was 95 % of control, the T/C [6] was 100 % of control and the T/C [7] was 92 % of control.
With `CSc1nc2c(=O)[nH]cnc2s1` the T/C [3] was 105 % of control, the T/C [4] was 102 % of control and the T/C [5] was 96 % of control.
`O=C(CNC(=O)NCc1ccco1)N/N=C/c1ccccc1O` was tested, and the T/C [9] was 89 % of control and the T/C [10] was 96 % of control.
In the case of `O=C(C(Br)C(Br)c1ccccc1)N1CCOCC1` (centres undefined), the T/C [10] was 118 % of control, the T/C (dose: 178.0 mg/kg/injection, schedule: Q01DX009 (ip), vehicle: saline with Tween-80) was 113 % of control and the T/C (dose: 266.0 mg/kg/injection, schedule: Q01DX009 (ip), vehicle: saline with Tween-80) was 119 % of control. For the same molecule, the T/C (dose: 400.0 mg/kg/injection, schedule: Q01DX009 (ip), vehicle: saline with Tween-80) was 121 % of control.
`CCOc1nc2ccccc2nc1OCC` was tested, and the T/C [11] was 95 % of control and the T/C [12] was 104 % of control.
`CCC[CH2][Sn]([CH2]CCC)([O]C(=O)CCC(C)=O)[O]C(=O)CCC(C)=O` was tested, and the T/C (dose: 3.12 mg/kg/injection, schedule: Q01DX009 (ip), vehicle: Klucel (hydroxypropylcellulose) (HPC)) was 118 % of control and 119 % of control and the T/C (dose: 12.5 mg/kg/injection, schedule: Q01DX009 (ip), vehicle: Klucel (hydroxypropylcellulose) (HPC)) was 163 % of control.
For `Cc1ccccc1N=c1c2cnn(C)c2ncn1-c1ccccc1C`, the T/C [11] was 96 % of control, the T/C [12] was 96 % of control and the T/C [13] was 93 % of control.
`CCCNCC(=O)Nc1ccccc1NC(=O)CNCCC` was tested, and the T/C [14] was 100 % of control, the T/C [15] was 102 % of control and the T/C [16] was 100 % of control.
With `O=C(Oc1ccccc1)c1ccc([N+](=O)[O-])cc1` the T/C (dose: 25.0 mg/kg/injection, schedule: Q01DX005 (ip), vehicle: Klucel (hydroxypropylcellulose) (HPC)) was 100 % of control, the T/C [11] was 105 % of control and the T/C [12] was 101 % of control. For the same molecule, the T/C [13] was 104 % of control.
For `OC1CC2CCc3[nH]c4ccccc4c3CCN(C1)C2` (centres undefined), the T/C (dose: 5.5 mg/kg/injection, schedule: Q01DX005 (ip), vehicle: Klucel (hydroxypropylcellulose) (HPC)) was 91 % of control, the T/C (dose: 11.0 mg/kg/injection, schedule: Q01DX005 (ip), vehicle: Klucel (hydroxypropylcellulose) (HPC)) was 96 % of control and the T/C (dose: 22.0 mg/kg/injection, schedule: Q01DX005 (ip), vehicle: Klucel (hydroxypropylcellulose) (HPC)) was 100 % of control. The T/C (dose: 44.0 mg/kg/injection, schedule: Q01DX005 (ip), vehicle: Klucel (hydroxypropylcellulose) (HPC)) was 100 % of control.
For `COC(=O)NCCn1c([N+](=O)[O-])cnc1C`, the T/C (dose: 100.0 mg/kg/injection, schedule: Q01DX001 (ip), vehicle: saline with Tween-80) was 99 % of control, the T/C (dose: 200.0 mg/kg/injection, schedule: Q01DX001 (ip), vehicle: saline with Tween-80) was 98 % of control and the T/C (dose: 400.0 mg/kg/injection, schedule: Q01DX001 (ip), vehicle: saline with Tween-80) was 106 % of control.
`C=C1C[C@H](O)[C@H]2C(C[Se]c3ccccc3)C(=O)O[C@@H]2[C@H]2[C@H](C)C(O)C[C@@H]12` (some centres undefined) was tested, and the T/C [3] was 91 % of control, the T/C [4] was 95 % of control and the T/C [5] was 98 % of control.
For `CN(C)CCCNc1cc(O)c2c(c1O)C(=O)c1ccccc1C2=O`, the T/C (dose: 12.5 mg/kg/injection, schedule: Q04DX003 (ip), vehicle: water) was 102 % of control, the T/C (dose: 25.0 mg/kg/injection, schedule: Q01DX009 (ip), vehicle: water) was 109 % of control and the T/C (dose: 25.0 mg/kg/injection, schedule: Q04DX003 (ip), vehicle: water) was 100 % of control. For the same molecule, the T/C (dose: 50.0 mg/kg/injection, schedule: Q01DX009 (ip), vehicle: water) was 120 % of control, the T/C (dose: 50.0 mg/kg/injection, schedule: Q04DX003 (ip), vehicle: water) was 115 % of control and the T/C (dose: 88.0 mg/kg/injection, schedule: Q01DX009 (ip), vehicle: other) was 110 % of control. For the same molecule, the T/C (dose: 100.0 mg/kg/injection, schedule: Q01DX009 (ip), vehicle: water) was 116 % of control, the T/C (dose: 100.0 mg/kg/injection, schedule: Q04DX003 (ip), vehicle: water) was 103 % of control and the T/C (dose: 133.0 mg/kg/injection, schedule: Q01DX009 (ip), vehicle: other) was 117 % of control. The T/C (dose: 200.0 mg/kg/injection, schedule: Q04DX003 (ip), vehicle: water) was 111 % of control.
With `O=CN(CC(=O)O)CC(=O)O` the T/C [14] was 100 % of control, the T/C [15] was 100 % of control and the T/C [16] was 102 % of control.
With `COC(=O)/C=C/c1cccc[n+]1[O-]` the T/C (dose: 25.0 mg/kg/injection, schedule: Q01DX005 (ip), vehicle: water) was 107 % of control, the T/C (dose: 50.0 mg/kg/injection, schedule: Q01DX005 (ip), vehicle: water) was 107 % of control and the T/C (dose: 100.0 mg/kg/injection, schedule: Q01DX005 (ip), vehicle: water) was 109 % of control. For the same molecule, the T/C (dose: 200.0 mg/kg/injection, schedule: Q01DX005 (ip), vehicle: water) was 107 % of control.
For `CSc1ccnc2ccccc12`, the T/C (dose: 12.5 mg/kg/injection, schedule: Q01DX009 (ip), vehicle: other) was 103 % of control, the T/C (dose: 25.0 mg/kg/injection, schedule: Q01DX009 (ip), vehicle: other) was 118 % of control and the T/C (dose: 50.0 mg/kg/injection, schedule: Q01DX009 (ip), vehicle: other) was 114 % of control.
With `O=C(C(=O)N1CCC(O)CC1)c1c[nH]c2ccccc12` the T/C [2] was 98 % of control, the T/C [17] was 101 % of control and the T/C [18] was 100 % of control.
In the case of `O=c1[nH]c2cc(Cl)ccc2nc1/C=C(\O)c1ccc(F)cc1`, the T/C [3] was 89 % of control, the T/C [4] was 87 % of control and the T/C [5] was 102 % of control.
`CC1=NN(C(=O)NS(=O)(=O)c2ccc(CCNC(=O)c3nccnc3N)cc2)C(C)(C)C1` was tested, and the T/C [8] was 102 % of control, the T/C [6] was 105 % of control and the T/C [7] was 102 % of control.
`O=C1N(Cc2ccccc2)C2CCS(=O)CCC2N1Cc1ccccc1` (centres undefined) was tested, and the T/C [8] was 100 % of control, the T/C [6] was 95 % of control and the T/C [7] was 92 % of control.
`Cn1c(N2CCOCC2)cc2nc3ccccc3n2c1=O` was tested, and the T/C [3] was 96 % of control, the T/C [4] was 98 % of control and the T/C [5] was 96 % of control.
In the case of `COc1cc(OC)c2[nH]c3c(c(=O)c2c1)C(=O)c1[nH]c2c(OC)cc(OC)cc2c(=O)c1C3=O`, the T/C [2] was 109 % of control, the T/C [17] was 105 % of control and the T/C [18] was 108 % of control.
In the case of `CC1C(=O)OC2C1CCC1(C)C=CC(=O)C(C)C21` (centres undefined), the T/C (dose: 12.5 mg/kg/injection, schedule: Q04DX002 (ip), vehicle: saline with Tween-80) was 110 % of control and the T/C (dose: 25.0 mg/kg/injection, schedule: Q04DX002 (ip), vehicle: saline with Tween-80) was 103 % of control.
In the case of `O=S(=O)(OCCCl)c1c(F)c(F)c(F)c(F)c1F`, the T/C (dose: 3.12 mg/kg/injection, schedule: Q01DX009 (ip), vehicle: saline with Tween-80) was 103 % of control, the T/C [19] was 109 % of control and the T/C (dose: 12.5 mg/kg/injection, schedule: Q01DX009 (ip), vehicle: saline with Tween-80) was 110 % of control.
In the case of `C/C(=N\N=C(N)N)c1cccc(/C(C)=N/N=C(N)N)n1`, the T/C [19] was 101 % of control, the T/C (dose: 25.0 mg/kg/injection, schedule: Q01DX009 (ip), vehicle: saline with Tween-80) was 110 % of control and the T/C [9] was 90 % of control.
`COc1ccccc1C(=O)CCN(C)C` was tested, and the T/C (dose: 15.0 mg/kg/injection, schedule: Q01DX005 (ip), vehicle: saline) was 98 % of control, the T/C (dose: 30.0 mg/kg/injection, schedule: Q01DX005 (ip), vehicle: saline) was 112 % of control and the T/C (dose: 60.0 mg/kg/injection, schedule: Q01DX005 (ip), vehicle: saline) was 114 % of control and 97 % of control.
With `S=c1[nH]c2ccccc2c2ccccc12` the T/C [1] was 100 % of control, the T/C [2] was 100 % of control and the T/C [17] was 88 % of control. The T/C [18] was 92 % of control.
For `CC(C)NCC1CCc2cc(CO)c([N+](=O)[O-])cc2N1` (centres undefined), the T/C [11] was 105 % of control, the T/C [12] was 107 % of control and the T/C [13] was 106 % of control.
In the case of `Nc1nc(-c2ccc(Cl)cc2)nc2sc3c(c12)CCCCC3`, the T/C [8] was 90 % of control, the T/C [6] was 90 % of control and the T/C [7] was 95 % of control.
